Results published in patent publication US6573218B1, “Fused-benzene derivatives useful as herbicides” (Ishihara Sangyo Kaisha, Ltd., priority 1998, dated 2003).

Legend:
Assay type in all cases: in vivo
[1] = system: field corn (Zea mays L., var. Dekalb 527, CORN); experiment: Post-emerge greenhouse crop damage test; conditions: 250 g ai/ha, post-emerge, 14 days after application
Description: (§1) A standard greenhouse herbicide activity screening system was used to evaluate the herbicidal efficacy and crop safety of these test compounds. Seven broadleaf weed species including redroot pigweed (Amaranthus retroflexus, AMARE), velvetleaf (Abutilon theophrasti, ABUTH), sicklepod (Cassia obtusifolia, CASOB), ivyleaf morningglory (Ipomoea hederacea, IPOHE), lambsquarters (Chenopodium album, CHEAL), common ragweed (Ambrosia artemisiifolia L., AMBEL), and cocklebur (Xanthium strumarium, XANST) were used as test species. Four grass weed species including green foxtail (Setaria viridis, SETVI), barnyardgrass (Echinochloa crus-galli, ECHCG), johnsongrass (Sorghum halepense, SORHA), and large crabgrass (Digitaria sanguinalis, DIGSA) were also used. In addition, three crop species, field corn (Zea mays L., var. Dekalb 527, CORN), soybean (Glycine max L., var. Pella 86, SOY), and upland rice (Ory0a sp., var.Tebonnet, RICE) were included.
(§2) All plants were grown in 10 cm square plastic pots which were filled with a sandy loam soil mix. For pre-emerge tests, seeds were planted one day prior to application of the test compounds. For post-emerge tests, seeds were planted 8-21 days prior to the test to allow emergence and good foliage development prior to application of the test substances. At the time of the post-emerge application, plants of all species were usually at the 2-3 leaf stage of development.
(§3) All test compounds were dissolved in acetone and applied to the test units in a volume of 187 l/ha. Test materials were applied at rates ranging from 15 g ai/ha to 1000 g ai/ha using a track sprayer equipped with a TJ8001E even flow flat fan spray nozzle. Plants were arranged on a shelf so that the top of the canopy (post-emerge) or top of the soil surface (pre-emerge) was 40-45 cm below the nozzle. Pressurized air was used to force the test solution through the nozzle as it was mechanically advanced over the top of all test plants/pots. This application simulates a typical commercial field herbicide application.
(§4) In the post-emerge test, a commercial non-ionic surfactant was also included (0.25% v/v) to enhance wetting of the leaf surfaces of target plants. Immediately after application, test units of the pre-emerge applications were watered at the soil surface to incorporate the test materials.
(§5) At 14 days after application of the test materials, phytotoxicity ratings were recorded. A rating scale of 0-100 was used as previously described in Research Methods in Weed Science, 2nd edition, B. Truelove, Ed., Southern Weed Science Society, Auburn University, Auburn, Ala., 1977. Briefly, “0” corresponds to no damage and “100” corresponds to complete death of all plants in the test unit. This scale was used both to determine efficacy against weed species and damage to crop species. Herbicide activity data for various compounds of this invention, which are shown by compound No. in Tables 1-14, are shown in Tables 16 and 17.

[2] = system: soybean (Glycine max L., var. Pella 86, SOY); experiment: Post-emerge greenhouse crop damage test; conditions: in vivo
Description: as §1, §2, §3, §4, §5

[3] = system: upland rice (Ory0a sp., var.Tebonnet, RICE); experiment: Post-emerge greenhouse crop damage test; conditions: 250 g ai/ha, post-emerge, 14 days after application
Description: as §1, §2, §3, §4, §5

[4] = system: velvetleaf (Abutilon theophrasti, ABUTH); experiment: Post-emerge greenhouse herbicide test; conditions: 250 g ai/ha, 14 days after application
Description: as §1, §2, §3, §4, §5

[5] = system: lambsquarters (Chenopodium album, CHEAL); experiment: Post-emerge greenhouse herbicide test; conditions: 250 g ai/ha, 14 days after application
Description: as §1, §2, §3, §4, §5

[6] = system: green foxtail (Setaria viridis, SETVI); experiment: Post-emerge greenhouse herbicide test; conditions: 250 g ai/ha, 14 days after application
Description: as §1, §2, §3, §4, §5

[7] = system: ivyleaf morningglory (Ipomoea hederacea, IPOHE); experiment: Post-emerge greenhouse herbicide test; conditions: 250 g ai/ha, 14 days after application
Description: as §1, §2, §3, §4, §5

[8] = system: redroot pigweed (Amaranthus retroflexus, AMARE); experiment: Post-emerge greenhouse herbicide test; conditions: 250 g ai/ha, 14 days after application
Description: as §1, §2, §3, §4, §5

[9] = system: large crabgrass (Digitaria sanguinalis, DIGSA); experiment: Post-emerge greenhouse herbicide test; conditions: 250 g ai/ha, 14 days after application
Description: as §1, §2, §3, §4, §5

[10] = system: sicklepod (Cassia obtusifolia, CASOB); experiment: Post-emerge greenhouse herbicide test; conditions: 250 g ai/ha, 14 days after application
Description: as §1, §2, §3, §4, §5

[11] = system: barnyardgrass (Echinochloa crus-galli, ECHCG); experiment: Post-emerge greenhouse herbicide test; conditions: 250 g ai/ha, 14 days after application
Description: as §1, §2, §3, §4, §5

[12] = system: johnsongrass (Sorghum halepense, SORHA); experiment: Post-emerge greenhouse herbicide test; conditions: 250 g ai/ha, 14 days after application
Description: as §1, §2, §3, §4, §5

[13] = system: field corn (Zea mays L., var. Dekalb 527, CORN); experiment: Pre-emerge greenhouse crop damage test; conditions: pre-emerge, 250 g ai/ha, 14 days after application, scale 0-100 (0 no damage, 100 complete death)
Description: as §1, §2, §3, §4, §5

[14] = system: soybean (Glycine max L., var. Pella 86, SOY); experiment: Pre-emerge greenhouse crop damage test; conditions: pre-emerge, 250 g ai/ha, 14 days after application, scale 0-100 (0 no damage, 100 complete death)
Description: as §1, §2, §3, §4, §5

[15] = system: upland rice (Ory0a sp., var.Tebonnet, RICE); experiment: Pre-emerge greenhouse crop damage test; conditions: pre-emerge, 250 g ai/ha, 14 days after application, scale 0-100 (0 no damage, 100 complete death)
Description: as §1, §2, §3, §4, §5

[16] = system: velvetleaf (Abutilon theophrasti, ABUTH); experiment: Pre-emerge greenhouse herbicide test; conditions: 250 g ai/ha, 14 days after application, scale 0-100 (0 no damage, 100 complete death)
Description: as §1, §2, §3, §4, §5

[17] = system: lambsquarters (Chenopodium album, CHEAL); experiment: Pre-emerge greenhouse herbicide test; conditions: 250 g ai/ha, 14 days after application, scale 0-100 (0 no damage, 100 complete death)
Description: as §1, §2, §3, §4, §5

[18] = system: green foxtail (Setaria viridis, SETVI); experiment: Pre-emerge greenhouse herbicide test; conditions: 250 g ai/ha, 14 days after application, scale 0-100 (0 no damage, 100 complete death)
Description: as §1, §2, §3, §4, §5

[19] = system: ivyleaf morningglory (Ipomoea hederacea, IPOHE); experiment: Pre-emerge greenhouse herbicide test; conditions: 250 g ai/ha, 14 days after application, scale 0-100 (0 no damage, 100 complete death)
Description: as §1, §2, §3, §4, §5

[20] = system: redroot pigweed (Amaranthus retroflexus, AMARE); experiment: Pre-emerge greenhouse herbicide test; conditions: 250 g ai/ha, 14 days after application, scale 0-100 (0 no damage, 100 complete death)
Description: as §1, §2, §3, §4, §5

[21] = system: large crabgrass (Digitaria sanguinalis, DIGSA); experiment: Pre-emerge greenhouse herbicide test; conditions: 250 g ai/ha, 14 days after application, scale 0-100 (0 no damage, 100 complete death)
Description: as §1, §2, §3, §4, §5

[22] = system: sicklepod (Cassia obtusifolia, CASOB); experiment: Pre-emerge greenhouse herbicide test; conditions: 250 g ai/ha, 14 days after application, scale 0-100 (0 no damage, 100 complete death)
Description: as §1, §2, §3, §4, §5

[23] = system: barnyardgrass (Echinochloa crus-galli, ECHCG); experiment: Pre-emerge greenhouse herbicide test; conditions: 250 g ai/ha, 14 days after application, scale 0-100 (0 no damage, 100 complete death)
Description: as §1, §2, §3, §4, §5

## CCc1nc2c(N3C(=O)C4CCCCN4C3=S)c(F)cc(Cl)c2o1 (single isomer, unassigned) [Compound 7-5, 8-(7-Chloro-2-ethyl-5-fluorobenzoxazol-4-yl)-1,8-diazobicyclo[4,3,0]nonane-7-one-9-thione]
[1]
  Post-emerge crop damage CORN (phytotoxicity rating 0-100): 20
[2]
  Post-emerge crop damage SOY (phytotoxicity rating 0-100): 80
[3]
  Post-emerge crop damage RICE (phytotoxicity rating 0-100): 10
[4]
  Post-emerge Herbicidal Activity ABUTH (phytotoxicity rating 0-100): 100
[5]
  Post-emerge Herbicidal Activity CHEAL (phytotoxicity rating 0-100): 100
[6]
  Post-emerge Herbicidal Activity SETVI (phytotoxicity rating 0-100): 60
[7]
  Post-emerge Herbicidal Activity IPOHE (phytotoxicity rating 0-100): 100
[8]
  Post-emerge Herbicidal Activity AMARE (phytotoxicity rating 0-100): 100
[9]
  Post-emerge Herbicidal Activity DIGSA (phytotoxicity rating 0-100): 10
[10]
  Post-emerge Herbicidal Activity CASOB (phytotoxicity rating 0-100): 100
[11]
  Post-emerge Herbicidal Activity ECHCG (phytotoxicity rating 0-100): 0
[12]
  Post-emerge Herbicidal Activity SORHA (phytotoxicity rating 0-100): 0
[13]
  Pre-emerge Herbicidal Activity CORN (crop damage rating): 0
[14]
  Pre-emerge Herbicidal Activity SOY (crop damage rating): 0
[15]
  Pre-emerge Herbicidal Activity RICE (crop damage rating): 0
[16]
  Pre-emerge Herbicidal Activity ABUTH (phytotoxicity rating): 30
[17]
  Pre-emerge Herbicidal Activity CHEAL (phytotoxicity rating): 60
[18]
  Pre-emerge Herbicidal Activity SETVI (phytotoxicity rating): 0
[19]
  Pre-emerge Herbicidal Activity IPOHE (phytotoxicity rating): 0
[20]
  Pre-emerge Herbicidal Activity AMARE (phytotoxicity rating): 50
[21]
  Pre-emerge Herbicidal Activity DIGSA (phytotoxicity rating): 0
[22]
  Pre-emerge Herbicidal Activity CASOB (phytotoxicity rating): 0
[23]
  Pre-emerge Herbicidal Activity ECHCG (phytotoxicity rating): 0

## CCc1nc2c(N3C(=O)C4CCCCN4C3=S)c(F)cc(Cl)c2o1 (single isomer, unassigned) [Compound 7-6, 8-(7-Chloro-2-ethyl-5-fluorobenzoxazol-4-yl)-1,8-diazobicyclo[4,3,0]nonane-7-one-9-thione]
[1]
  Post-emerge crop damage CORN (phytotoxicity rating 0-100): 30
[2]
  Post-emerge crop damage SOY (phytotoxicity rating 0-100): 50
[3]
  Post-emerge crop damage RICE (phytotoxicity rating 0-100): 10
[4]
  Post-emerge Herbicidal Activity ABUTH (phytotoxicity rating 0-100): 90
[5]
  Post-emerge Herbicidal Activity CHEAL (phytotoxicity rating 0-100): 60
[6]
  Post-emerge Herbicidal Activity SETVI (phytotoxicity rating 0-100): 10
[7]
  Post-emerge Herbicidal Activity IPOHE (phytotoxicity rating 0-100): 70
[8]
  Post-emerge Herbicidal Activity AMARE (phytotoxicity rating 0-100): 30
[9]
  Post-emerge Herbicidal Activity DIGSA (phytotoxicity rating 0-100): 0
[10]
  Post-emerge Herbicidal Activity CASOB (phytotoxicity rating 0-100): 30
[11]
  Post-emerge Herbicidal Activity ECHCG (phytotoxicity rating 0-100): 0
